Source: patent publication US7993670B2, “Medical pad, and method for making and using” (General Wound Kare, Inc., priority 2003, dated 2011)

System: wound
Test: Clinical experience: treatment of a patient's wound
[1] = after a week of daily 1% gentian violet solution

Description: A change in the procedure was made. Instead of the direct application of the 1% gentian violet solution, a polyurethane pad, containing a reduced amount of gentian violet, mixed with glycerin and water, and then dried, was applied to the wound covered by the scab. Daily washings were continued and the scab was eventually debrided.

**Q.** What does the source list for `CN(C)c1ccc(C(=C2C=CC(=[N+](C)C)C=C2)c2ccc(N(C)C)cc2)cc1` [gentian violet]?
**A.** scab formation (1% gentian violet solution applied daily, wound washed daily with soap and water): scab was formed; infection of the wound [1]: no evidence of any infection; size of the wound [1]: remained the same; staining of the painted wound area (liquid gentian violet solution at 1% strength painted on the wound daily): stained purple
